# Data taken from patent US4588729A, “Treating convulsions with dihydrouracil derivatives” (Kyowa Hakko Kogyo Co., Ltd., priority 1984, dated 1986).
# Legend:
# male dd-strain mice [1] = assay: Maximal electroshock seizure test; assay type: in vivo; conditions: Mus musculus, po, 1 h, P.O., shock 60 minutes after administration, suppression of tonic extensor in at least 3 of 5 mice, read-out: MED for anticonvulsive action, Maximal electroshock seizure test
# Experimental: (1) Maximal electroshock seizure test
# Groups of mice, each consisting of 5 male dd-strain mice having a weight of 20±1 g were orally administered with some of said compounds and 60 minutes thereafter, an electric current of 2,000 V, 50 mA was passed to both eyes of the mouse for 0.2 seconds to observe occurrence of tonic extensor. Suppression of tonic extensor occurrence on at least three mice was regarded as effective, and MED (minimum effective dose) for suppressing the convulsion was determined.
# male Carworth Farm mice = assay: Anticonvulsive action: MES (maximum electroconvulsive procedure) and subcutaneous pentylenetetrazole seizure tests, combined evaluation; assay type: in vivo; conditions: Mus musculus, sc, dose levels 30, 100, 300 (600) mg/kg, MES and 85 mg/kg s.c. pentylenetetrazole tests, read-out: Evaluation (anticonvulsant activity class)
# Experimental: The present test was performed in male Carworth Farm mice. All compounds were tested at least 3 dose levels (30, 100, 300 mg/kg) with a fourth dose of 600 mg/kg being performed when there was sufficient quantity available. The vehicles used to solubilize each compound were 30% aqueous polyethylene glycol solution (Compound Nos. 31 to 38, 45, 47 and 48) and 0.9% saline (Compound Nos. 44 and 46). The following two tests were performed. MES (Maximum electroconvulsive procedure) Maximal electroshock seizures were elicited with a 60 cycle alternating current of 50 mA intensity (5-7 times that necessary to elicit minimal electroshock seizures) delivered for 0.2 sec via corneal electrodes. A drop of 0.9% saline was instilled in the eye prior to application of the electrodes in order to prevent the death of the animal. Abolition of the hind limb tonic extension component of the seizure was defined as protection and results were expressed as: [formula] First, 85 mg/kg of pentylenetetrazole (produces seizures in greater than 95% of mice) was administered as a 0.5% solution subcutaneously in the posterior midline. […] Failure to observe even a threshold seizure (a single episode of clonic spasms of at least 5 sec duration) was defined as protection and the results were expressed as: [formula] (2) Evaluation method All results were classified into one of the following three evaluation standard: .circle.1 Anticonvulsant activity at 100 mg/kg or less .circle.2 Anticonvulsant activity at doses greater than 100 mg/kg, or anticonvulsant activity at 100 mg/kg not reinforced by similar activity at 300 mg/kg .circle.3 No anticonvulsant activity at doses up to and including 300 mg/kg
# Acute toxicity test = conditions: mouse, in vivo, po; P.O., mice, suspension in 0.3% CMC, 7 days after administration
# male dd-strain mice [2] = assay: Pentetrazol-induced seizure test; assay type: in vivo; conditions: Mus musculus, po, P.O., 120 mg/kg pentetrazol s.c., suppression of clonic seizure in at least 3 of 5 mice, read-out: MED for anticonvulsive action, Pentetrazol-induced seizure test
# Experimental: (2) Pentetrazol-induced seizure test
# Groups of mice, each consisting of 5 male dd-strain mice having a weight of 20±1 g were subcutaneously administered by 120 mg/kg of pentetrazol, and occurrence of clonic seizure was observed. Suppression of clonic seizure occurrence on at least three mice was regarded as effective, and MED was determined.
Compound,minimal effective dose (male dd-strain mice [1]),minimal effective dose (male Carworth Farm mice),LD50 at 168 h (Acute toxicity test),minimal effective dose (male dd-strain mice [2])
"CN1CCC(=O)N(c2ccc(Cl)cc2Cl)C1=O [Compound 36, 3-(2,4-dichlorophenyl)-1-methyl-dihydrouracil]",100 mg/kg,≤ 100 mg/kg,> 300 mg/kg,200 mg/kg
"Cc1cc(Cl)ccc1N1CCC(=O)N(C)C1=O [Compound 9, 1-(2-methyl-4-chlorophenyl)-3-methyl-dihydrouracil]",150 mg/kg,–,> 300 mg/kg,200 mg/kg
"CN1CCC(=O)N(c2ccccc2Cl)C1=O [Compound 29, 3-(2-chlorophenyl)-1-methyl-dihydrouracil]",150 mg/kg,–,> 300 mg/kg,150 mg/kg
"CN1CCC(=O)N(c2ccccc2N)C1=O.Cl [Compound 46, 3-(2-aminophenyl)-1-methyl-dihydrouracil hydrochloride]",–,> 100 mg/kg,–,–
"CN1CCC(=O)N(c2ccccc2C(F)(F)F)C1=O [Compound 35, 1-methyl-3-(2-trifluoromethylphenyl)-dihydrouracil]",–,> 100 mg/kg,–,–
"CN1CCC(=O)N(c2ccccc2[N+](=O)[O-])C1=O [Compound 45, 1-methyl-3-(2-nitrophenyl)-dihydrouracil]",–,> 100 mg/kg,–,–
"CCOC(=O)c1ccccc1N1C(=O)CCN(C)C1=O [Compound 48, 3-(2-ethoxycarbonylphenyl)-1-methyl-dihydrouracil]",–,≤ 100 mg/kg,–,–
"CN1C(=O)CCN(c2ccc(Cl)cc2Cl)C1=O [Compound 31, 1-(2,4-dichlorophenyl)-3-methyl-dihydrouracil]",100 mg/kg,≤ 100 mg/kg,> 300 mg/kg,100 mg/kg
"CN1C(=O)CCN(c2ccc(N)cc2)C1=O.Cl [Compound 44, 1-(4-aminophenyl)-3-methyl-dihydrouracil hydrochloride]",–,≤ 100 mg/kg,–,–
"CN1CCC(=O)N(c2ccccc2F)C1=O [Compound 38, 3-(2-fluorophenyl)-1-methyl-dihydrouracil]",–,> 100 mg/kg,–,–
"CN1C(=O)CCN(c2ccc(C(F)(F)F)cc2)C1=O [Compound 33, 3-methyl-1-(4-trifluoromethylphenyl)-dihydrouracil]",100 mg/kg,≤ 100 mg/kg,> 300 mg/kg,300 mg/kg
"CN1C(=O)CCN(c2ccc(Cl)cc2)C1=O [Compound 3, 1-(4-chlorophenyl)-3-methyl-dihydrouracil]",75 mg/kg,–,> 300 mg/kg,200 mg/kg
"CN1CCC(=O)N(c2cccc3ccccc23)C1=O [Compound 47, 1-methyl-3-α-naphthyl-dihydrouracil]",100 mg/kg,≤ 100 mg/kg,> 300 mg/kg,200 mg/kg
"O=C1CCN(c2ccc(Cl)cc2)C(=O)N1 [Compound 32, 1-(4-chlorophenyl)-dihydrouracil]",–,> 100 mg/kg,–,–
"CN1CCC(=O)N(c2cccc(Cl)c2Cl)C1=O [Compound 34, 3-(2,3-dichlorophenyl)-1-methyl-dihydrouracil]",150 mg/kg,≤ 100 mg/kg,> 300 mg/kg,300 mg/kg
"CN1CCC(=O)N(c2cc(Cl)ccc2Cl)C1=O [Compound 24, 3-(2,5-dichlorophenyl)-1-methyl-dihydrouracil]",100 mg/kg,–,> 300 mg/kg,100 mg/kg
"Cc1cccc(Cl)c1N1C(=O)CCN(C)C1=O [Compound 37, 3-(2-chloro-6-methylphenyl)-1-methyl-dihydrouracil]",–,> 100 mg/kg,–,–
"CN1C(=O)CCN(c2cccc(C(F)(F)F)c2)C1=O [Compound 7, 3-methyl-1-(3-trifluoromethylphenyl)-dihydrouracil]",100 mg/kg,–,> 1000 mg/kg,100 mg/kg
